Experimental data published in patent US20230158108A1 (priority 2020, published 2023).
“Also recorded” adds a separate entry of the source. Where two headings read alike, the source gives them in different places.

What was measured:
[1] = tested on: healthy neutrophils; format: cell-based, human; details: healthy neutrophils pretreated
[2] = tested on: experimental sepsis; details: models of experimental sepsis; cited from earlier work
[3] = tested on: LPS-induced acute lung inflammation; format: in vivo; details: LPS-induced acute lung inflammation model; nNIF given IP
Description: Thus, nNIF can reduce NETs similar to an FDA approved drug, such as dexamethasone.

[4] = tested on: PMNs isolated from healthy adults; test: NET formation in healthy adult PMNs induced by COVID-19 patient plasma (confocal microscopy, cell-free DNA fluorescence assay); format: cell-based, human; details: peptide 1 nM, 1-hour preincubation, undiluted COVID-19 plasma 2 hours
[5] = tested on: PMNs isolated from healthy adults; test: poly (I:C)-induced NETosis in PMNs from healthy adults; format: cell-based, human; details: poly (I:C) 1 μg/mL, 2 hours
[6] = tested on: PMNs isolated from COVID-19 patients; test: poly (I:C)-induced NETosis in PMNs from COVID-19 patients; format: cell-based, human; details: poly (I:C) 1 μg/mL, 2 hours

Substance	Inhibition of COVID-19 plasma induced NETosis ([1]; high-inducing pooled plasma (>3-fold induction))	Inhibition of COVID-19 plasma induced NETosis ([1]; medium-inducing pooled plasma (2-3 fold induction))	Disease severity [2]	NETosis [2]	Survival [2]	In vivo efficacy: NETs or cells undergoing early NETosis (cytospin) [3]	NETosis induced in vitro by COVID-19 plasma [4]	NETosis induction in vitro [5]	Increase in NETosis compared to elevated baseline levels [6] [fold]
KAVLTIDEKGTEAAGAMFLEAIPMSIPPEVKFNKPFVFLMIEQNTKSPLFMGKVVNPTQK (listed as Homo sapiens) [nNIF]	clearly observed	clearly observed	decreased disease severity	decrease in NETosis	improved survival	very good efficacy	significantly decreases NETosis; also recorded: inhibits NETs induced by COVID-19 plasma	–	–
poly (I:C)	–	–	–	–	–	–	–	induces NETosis	2
